Results: paper PMC7607624 (Journal of nuclear medicine : official publication, Society …, 2013)

Legend:
[1] = design: species or system human; details: in vivo
[2] = human, in vivo
[3] = design: species or system human; details: in vivo; remark: listed apart in the source
[4] = design: species or system human; details: in vivo, iv
[5] = design: species or system human; details: in vivo; remark: listed apart in the source

Normalized number of disintegrations, Brain [1]: 0.0089±0.0038 MBq-h/MBq administered
Normalized number of disintegrations, Breasts [1]: 0.015±0.0047 MBq-h/MBq administered
Normalized number of disintegrations, Heart Contents [1]: 0.026±0.0036 MBq-h/MBq administered
Normalized number of disintegrations, Kidneys [1]: 0.059±0.017 MBq-h/MBq administered
Normalized number of disintegrations, Liver [1]: 0.064±0.024 MBq-h/MBq administered
Normalized number of disintegrations, Remainder [1]: 0.82±0.14 MBq-h/MBq administered
Normalized number of disintegrations, Spleen [1]: 0.0090±0.0024 MBq-h/MBq administered
Normalized number of disintegrations, Testes [1]: 0.0057±0.0017 MBq-h/MBq administered
Normalized number of disintegrations, Urinary Bladder Wall (1.0-hr) [1]: 0.29±0.033 MBq-h/MBq administered
Normalized number of disintegrations, Urinary Bladder Wall (4.8-hr) [1]: 1.1±0.13 MBq-h/MBq administered
bladder uptake (percent administered activity) [2]: 16-27%
kidney uptake (percent administered activity) [2]: 3.5-11%
liver uptake (percent administered activity) [2]: 3.2-5.7%
mean SUV, bladder [2]: approximately 65
mean SUV, heart [2]: ~1.5
mean SUV, kidneys [2]: ~6
mean SUV, liver [2]: ~1.5
renal system (kidneys and bladder together) uptake [2]: 22-31%
parent tracer in urine [3]: 21%
clearance half-time of activity from blood pool / plasma ([4]; human): ~ 30 minutes
percentage of plasma-borne activity in the form of 18F-CP-18 [4]: 99%
Estimated organ dose per unit administered activity, Brain [5]: 2.4±0.6 μGy/MBq
Estimated organ dose per unit administered activity, Breasts [5]: 7.7±3.6 μGy/MBq
Estimated organ dose per unit administered activity, Heart Wall [5]: 10±0.8 μGy/MBq
Estimated organ dose per unit administered activity, Kidneys [5]: 39±10 μGy/MBq
Estimated organ dose per unit administered activity, Thymus [5]: 4.8±0.7 μGy/MBq
Estimated organ dose per unit administered activity, Thyroid [5]: 4.2±0.7 μGy/MBq
adult female phantom doses, higher than adult male phantom [5]: 20–34%
Substance: (18S,21S,24S,27S,30S)-27-(2-carboxyethyl)-21-(carboxymethyl)-30-((2S,3R,4R,5R,6S)-6-((2-(4-(3-[F18]fluoropropyl)-1H-1,2,3-triazol-1-yl)acetamido)methyl)-3,4,5-trihydroxytetrahydro-2H-pyran-2-carboxamido)-24-isopropyl-18-methyl-17,20,23,26,29-pentaoxo-4,7,10,13-tetraoxa-16,19,22,25,28-pentaazadotriacontane-1,32-dioic acid [18F-CP-18]
crossing of the blood-brain barrier [2]: did not appreciably cross the blood-brain barrier
